Like-named read-outs stand apart in the source and are kept apart here.
What was measured:
[1] = target: human Fatty Acid Amide Hydrolase (FAAH) (Homo sapiens (Human), UniProt O00519); experiment: biochemical
Experimental: Material and Reagents: All reagents were purchased from Sigma-Aldrich unless specified. […] Chaperone protein groEL-groES in pGRO7 plasmid (Takara Bio Inc, Japan) was co-expressed with Fatty Acid Amide Hydrolase (FAAH) to improve solubility of the protein expressed in E coli. […] Briefly, the bacterial cultures in Luria Broth (2 L) were induced with arabinose (2 mM) and Isopropyl (β-D-1-thiogalactopyranoside, IPTG (1 mM), for 20 h at room temperature. The cultures were centrifuged at 1200×g for 10 min and the cell pellet was resuspended in 100 mL buffer containing of 20 mM NaPi (pH 7.4), 100 mM NaCl, Benzonase (500u), Aprotinin (1 μg/mL) and Leupeptin (1 μg/mL). Cells were lyzed by sonication (Amp 20%, Pulse 15 s×15, on ice) and the cell debris removed by centrifugation at 5000×g for 20 min. The supernatant was enriched via ultracentrifugation at 100,000×g for 1 h and the cell pellet was resuspended in 16 mL buffer containing 20 mM NaPi (pH 7.8), 500 mM NaCl, 1% Triton X-100. The resuspended cell extract was subjected to ultra-centrifugation at 100,000×g for 1 h and the enriched supernatant was used in the in vitro assay. All protein extraction steps were carried out on ice or at 4° C.
The assay was carried out in 200 μL volume in a 96-well black polystyrene plate (Greiner Bio-one, Germany). Each reaction consisted of human Fatty Acid Amide Hydrolase (FAAH) protein and 10 μM AAMCA in assay buffer containing 50 mM HEPES, 1 mM EDTA and 0.1% BSA, pH 7.4. The reaction was incubated with 2 μL of varying concentrations of inhibitor in DMSO (final concentration of DMSO 1%) with shaking for 1 min and monitored for increase in fluorescence in kinetic mode for 50 min. […] Rate of reaction as a function of the concentration of the inhibitor was used to determine the IC50 of the inhibitors. Data was analyzed using GraphPad Prism 5 (GraphPad Software Inc., San Diego, Calif.).

[2] = target: rat Fatty Acid Amide Hydrolase (FAAH) (Rattus norvegicus (Rat), UniProt P97612); experiment: FAAH in vitro fluorescence assay (AAMCA hydrolysis), rat enzyme; type: biochemical; conditions: for inhibition at 0.1 µM: read-out: rFAAH % inhibition at 100 nM, 100 nM (tier I)
Procedure, shortened: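 Rat FAAH, E. coli-expressed with groEL-groES chaperone, used as enriched membrane extract with 10 μM AAMCA in 50 mM HEPES, 1 mM EDTA, 0.1% BSA, pH 7.4 (1% DMSO final).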

[3] = human FAAH, read-out: hFAAH IC50

Chain of rat Fatty Acid Amide Hydrolase (FAAH) (P97612 30-579): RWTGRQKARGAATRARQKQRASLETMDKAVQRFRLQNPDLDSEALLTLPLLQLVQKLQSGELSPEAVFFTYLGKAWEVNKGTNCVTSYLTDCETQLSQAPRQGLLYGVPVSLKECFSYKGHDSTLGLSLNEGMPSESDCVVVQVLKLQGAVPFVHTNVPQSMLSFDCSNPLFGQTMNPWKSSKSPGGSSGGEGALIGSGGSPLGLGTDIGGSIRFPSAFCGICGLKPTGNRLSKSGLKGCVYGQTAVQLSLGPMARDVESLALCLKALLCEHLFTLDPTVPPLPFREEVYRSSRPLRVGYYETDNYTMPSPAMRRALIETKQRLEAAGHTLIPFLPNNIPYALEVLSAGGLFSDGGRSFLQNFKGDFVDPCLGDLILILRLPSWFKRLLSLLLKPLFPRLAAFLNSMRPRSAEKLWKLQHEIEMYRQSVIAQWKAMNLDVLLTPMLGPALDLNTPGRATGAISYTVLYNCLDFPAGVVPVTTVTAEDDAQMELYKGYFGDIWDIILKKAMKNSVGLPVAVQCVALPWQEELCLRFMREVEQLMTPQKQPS
Chain of human Fatty Acid Amide Hydrolase (FAAH) (O00519 30-579): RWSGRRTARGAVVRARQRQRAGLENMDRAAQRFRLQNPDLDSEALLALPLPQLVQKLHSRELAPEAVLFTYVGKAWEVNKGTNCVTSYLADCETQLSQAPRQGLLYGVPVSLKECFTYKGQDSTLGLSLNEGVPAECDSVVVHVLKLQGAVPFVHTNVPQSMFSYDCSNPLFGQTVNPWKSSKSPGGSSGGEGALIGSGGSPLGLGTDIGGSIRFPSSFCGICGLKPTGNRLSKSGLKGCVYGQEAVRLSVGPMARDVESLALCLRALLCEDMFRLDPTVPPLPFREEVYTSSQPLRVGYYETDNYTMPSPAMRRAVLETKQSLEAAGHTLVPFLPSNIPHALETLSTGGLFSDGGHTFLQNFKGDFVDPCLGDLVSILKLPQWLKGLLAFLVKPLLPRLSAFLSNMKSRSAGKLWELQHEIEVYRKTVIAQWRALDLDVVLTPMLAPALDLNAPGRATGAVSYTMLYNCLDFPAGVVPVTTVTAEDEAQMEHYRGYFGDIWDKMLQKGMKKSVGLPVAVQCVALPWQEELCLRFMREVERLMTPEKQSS

SMILES	IC50 [1, 3] [nM]	IC50 ([2]; rat FAAH, read-out: rFAAH IC50) [nM]	further results
O=C(O)c1cnn(-c2ccc(C(=O)NC3CCC(=Cc4cccc(Oc5ccc(C(F)(F)F)cn5)c4)CC3)cn2)c1 (centres unmarked) [Example 8.A-4, 1-[5-[[4-[[3-[[5-(Trifluoromethyl)-2-pyridyl]oxy]phenyl]methylene]cyclohexyl]carbamoyl]-2-pyridyl]pyrazole-4-carboxylic acid]	–	–	IC50 ([1]; hFAAH IC50): 27 nM; inhibition at 0.1 µM ([2]; rat FAAH): 15%
Cc1n[nH]c(C)c1-c1ccc(C(=O)NC2CCC(=Cc3cccc(Oc4ccc(C(F)(F)F)cn4)c3)CC2)cn1 (centres unmarked) [Example 2.B-11, 6-(3,5-Dimethyl-1H-pyrazol-4-yl)-N-[4-[[3-[[5-(trifluoromethyl)-2-pyridyl]oxy]phenyl]methylene]cyclohexyl]pyridine-3-carboxamide]	17	52	–
O=C(NC1CCC(=Cc2cccc(Oc3ccc(C(F)(F)F)cn3)c2)CC1)c1cnc2[nH]ccc2c1 (single isomer, unassigned; (-)) [Example 20.A-14, (−)-N-[4-[[3-[[5-(trifluoromethyl)-2-pyridyl]oxy]phenyl]methylene]cyclohexyl]-1H-pyrrolo[2,3-b]pyridine-5-carboxamide]	–	8.6	IC50 ([1]; read-out: hFAAH IC50): 1 nM
O=C(NC1CCC(=Cc2cccc(Oc3ccc(C(F)(F)F)cn3)c2)CC1)c1ccc(C2CC2)nc1 (centres unmarked) [Example 2.A-42, 6-Cyclopropyl-N-[4-[[3-[[5-(trifluoromethyl)-2-pyridyl]oxy]phenyl]methylene]cyclohexyl]pyridine-3-carboxamide]	13	14	–
Cc1cc(C(=O)NC2CCC(=Cc3cccc(Oc4ccc(C(F)(F)F)c(C)n4)c3)CC2)cnc1N (centres unmarked) [Example 2.E-23, 6-Amino-5-methyl-N-[4-[[3-[[6-methyl-5-(trifluoromethyl)-2-pyridyl]oxy]phenyl]methylene]cyclohexyl]pyridine-3-carboxamide]	12	65	–
Nc1ncc(C(=O)NC2CCC(=Cc3cccc(Oc4ccc(C(F)(F)F)cn4)c3)CC2)cn1 (single isomer, unassigned; (-)) [Example 20.A-10]	–	7	IC50 ([1]; read-out: hFAAH IC50): 0.6 nM
CNc1ccc(C(=O)NC2CCC(=Cc3cccc(Oc4ccc(C(F)(F)F)cn4)c3)CC2)cn1 (centres unmarked) [Example 5.A-1, 6-(Methylamino)-N-[4-[[3-[[5-(trifluoromethyl)-2-pyridyl]oxy]phenyl]methylene]cyclohexyl]pyridine-3-carboxamide]	–	11	IC50 ([1]; read-out: hFAAH IC50): 4 nM
CCN(C)c1ccc(C(=O)NC2CCC(=Cc3cccc(Oc4ccc(C(F)(F)F)cn4)c3)CC2)cn1 (centres unmarked) [Example 5.A-7, 6-[Ethyl(methyl)amino]-N-[4-[[3-[[5-(trifluoromethyl)-2-pyridyl]oxy]phenyl]methylene]cyclohexyl]pyridine-3-carboxamide]	128	15	–
Nc1cc(C(=O)NC2CCC(=Cc3cccc(Oc4ccc(C(F)(F)F)cn4)c3)CC2)cnc1Cl (centres unmarked) [Example 10.1, 5-Amino-6-chloro-N-[4-[[3-[[5-(trifluoromethyl)-2-pyridyl]oxy]-phenyl]methylene]cyclohexyl]pyridine-3-carboxamide]	–	–	IC50 ([1]; hFAAH IC50): 1 nM; IC50 [2]: 6 nM
O=C(NC1CCC(=Cc2cccc(Oc3ccc(C(F)(F)F)cn3)c2)CC1)c1ccc(F)nc1 (centres unmarked) [Example 2.A-14, 6-Fluoro-N-[4-[[3-[[5-(trifluoromethyl)-2-pyridyl]oxy]phenyl]methylene]cyclohexyl]pyridine-3-carboxamide]	–	–	IC50 ([1]; read-out: hFAAH IC50): 10 nM; inhibition at 0.1 µM ([2]; rat FAAH): 25%
O=C(Nc1cnccn1)C1CCC(=Cc2cccc(Oc3ccc(C(F)(F)F)cn3)c2)CC1 (centres unmarked) [Example 1.A-3, N-Pyrazin-2-yl-4-[[3-[[5-(trifluoromethyl)-2-pyridyl]oxy]phenyl]methylene]cyclohexanecarboxamide]	9	44	–
O=C(NC1CCC(=Cc2cccc(Oc3ccc(C(F)(F)F)cn3)c2)CC1)c1ccccc1 (centres unmarked) [Example 2.A-34, N-[4-[[3-[[5-(Trifluoromethyl)-2-pyridyl]oxy]phenyl]methylene]cyclohexyl]benzamide]	18	–	inhibition at 1 µM ([2]; read-out: rFAAH % inhibition at 1 μM, rat FAAH, 1 μM): 50%
Cc1ccc(C(=O)NC2CCC(=Cc3cccc(Oc4ccc(C(F)(F)F)cn4)c3)CC2)cn1 (centres unmarked) [Example 2.2, 6-Methyl-N-[4-[[3-[[5-(trifluoromethyl)-2-pyridyl]oxy]phenyl]-methylene]cyclohexyl]pyridine-3-carboxamide]	–	28	IC50 ([1]; read-out: hFAAH IC50): 5 nM
O=C(NC1CCC(=Cc2cccc(Oc3ccc(C(F)(F)F)cn3)c2)CC1)c1cnccn1 (centres unmarked) [Example 2.A-5, N-[4-[[3-[[5-(Trifluoromethyl)-2-pyridyl]oxy]phenyl]methylene]cyclohexyl]pyrazine-2-carboxamide]	9	–	inhibition at 0.1 µM ([2]; rat FAAH): 27%
Cc1nc(Oc2cccc(C=C3CCC(NC(=O)c4ccc(N)nc4)CC3)c2)ccc1Cl (centres unmarked) [Example 2.E-16, 6-Amino-N-[4-[[3-[(5-chloro-6-methyl-2-pyridyl)oxy]phenyl]methylene]cyclohexyl]pyridine-3-carboxamide]	3	24	–
CN(C)c1ccc(C(=O)NC2CCC(=Cc3cccc(Oc4ccc(C(F)(F)F)cn4)c3)CC2)cn1 (centres unmarked) [Example 2.A-24, 6-(Dimethylamino)-N-[4-[[3-[[5-(trifluoromethyl)-2-pyridyl]oxy]phenyl]methylene]cyclohexyl]pyridine-3-carboxamide]	–	–	IC50 ([1]; read-out: hFAAH IC50): 9 nM; inhibition at 0.1 µM ([2]; rat FAAH): 31%
Nc1ccc(C(=O)NC2CCC(=Cc3cccc(Oc4ccc(C(F)(F)F)c(C5CC5)n4)c3)CC2)cn1 (centres unmarked) [Example 2.E-19, 6-Amino-N-[4-[[3-[[6-cyclopropyl-5-(trifluoromethyl)-2-pyridyl]oxy]phenyl]methylene]cyclohexyl]pyridine-3-carboxamide]	–	–	inhibition at 0.1 µM ([1]; read-out: hFAAH % inhibition at 100 nM, human FAAH, 100 nM (tier I)): 40%; inhibition at 0.1 µM ([2]; rat FAAH): 40%
Cc1cnn(-c2ccc(C(=O)NC3CCC(=Cc4cccc(Oc5ccc(C(F)(F)F)cn5)c4)CC3)cn2)c1 (centres unmarked) [Example 2.B-6, 6-(4-Methylpyrazol-1-yl)-N-[4-[[3-[[5-(trifluoromethyl)-2-pyridyl]oxy]phenyl]methylene]cyclohexyl]pyridine-3-carboxamide]	7	21	–
O=C(NC1CCC(=Cc2cccc(Oc3ccc(C(F)(F)F)cn3)c2)CC1)c1cn[nH]n1 (centres unmarked) [Example 2.A-19, N-[4-[[3-[[5-(Trifluoromethyl)-2-pyridyl]oxy]phenyl]methylene]cyclohexyl]-2H-triazole-4-carboxamide]	6	145	–
CCOc1ccc(C(=O)NC2CCC(=Cc3cccc(Oc4ccc(C(F)(F)F)cn4)c3)CC2)cn1 (centres unmarked) [Example 6.1, 6-Ethoxy-N-[4-[[3-[[5-(trifluoromethyl)-2-pyridyl]oxy]phenyl]-methylene]cyclohexyl]pyridine-3-carboxamide]	10	8	–
Cc1nc(Oc2cccc(C=C3CCC(NC(=O)c4cnc(N)nc4)CC3)c2)ccc1C(F)(F)F (centres unmarked) [Example 2.E-22, 2-Amino-N-[4-[[3-[[6-methyl-5-(trifluoromethyl)-2-pyridyl]oxy]phenyl]methylene]cyclohexyl]pyrimidine-5-carboxamide]	2	21	–
Cc1cc(C(=O)NC2CCC(=Cc3cccc(Oc4ccc(Cl)c(C)n4)c3)CC2)cnc1N (centres unmarked) [Example 2.E-25, 6-Amino-N-[4-[[3-[(5-chloro-6-methyl-2-pyridyl)oxy]phenyl]methylene]cyclohexyl]-5-methyl-pyridine-3-carboxamide]	7	32	–

From patent US9682953B2, “Amide compounds, compositions and applications thereof” (Advinus Therapeutics Limited, priority 2011, dated 2017)
